Consider 20 molecules from patent US20180148429A1 (SELVITA S.A., priority 2015, published 2018).

Test [1] deals with T1, BRK (PTK6 protein tyrosine kinase 6) (Homo sapiens, UniProt Q13882).
T1 construct: purchased Carna Bioscience 08-165
Description: BRK (PTK6 protein tyrosine kinase 6) IC50 determination assay (in vitro kinase assay, ADP-Glo Max). The test is classed as biochemical. Conditions: ATP 1600 uM (Km), Poly(Glu, Tyr) 160 uM, 75 nM PTK6, 45 min, RT. On the procedure: BRK (PTK6 Protein Tyrosine Kinase 6) IC50 Determination Assay
In vitro kinase assay used to determine IC50 values for tested inhibitors is based on a modified ADP-Glo™ Max Assay system (Promega) and consists of two parts:
1. Kinase reaction—performed in optimized conditions. At this step BRK phosphorylates its substrate Poly(Glu, Tyr) sodium salt [Glu:Tyr (4:1)] using ATP as a source of phosphate to produce phosphorylated substrate and ADP. Reaction is performed at Km values for ATP and substrate using optimized buffer composition and time of the reaction. BRK (PTK6 protein tyrosine kinase 6) used in the experiments is commercially available (Carna Bioscience, cat. No. 08-165).
2. Detection of ADP as a product of the reaction using ADP-Glo™ system. This part is conducted by using the commercially available kit ADP-Glo™ Max Assay (Promega, cat. No. V7001) according to manufacturer's instruction. Reproducibility and reliability of this modification is confirmed in an optimization process.
Test compounds are dissolved in DMSO and then transferred to the V-bottom 96-well plate.
Two mixes are prepared on ice: Mix 1—containing appropriate kinase amount in 2× reaction buffer and Mix 2—containing concentrated substrate (Poly(Glu, Tyr) sodium salt) and ATP in MilliQ water. 15 μL per well of Mix 1 is transferred to assay wells of 96-well white plate. Next, 2 μl of 15× concentrated test compound in DMSO is added to Mix 1 for 20 min pre-incubation, followed by addition of Mix 2 (13 μl/well). Total reaction volume is 30 μL per well. Samples are tested in duplicates. Final concentration of DMSO in the reaction is 6.7%. Conditions needed for performing BRK in vitro kinase assay are given below:
This protocol is based on Technical Bulletin, ADP-Glo™ Kinase Assay (Promega) and is adapted to 96-well plate containing 30 μL reaction mixture. 30 μL of ADP-Glo™ Reagent is added to each well of 96-well plate containing 30 μL of reaction mixture. The plate is incubated for 90 minutes on a shaker at RT. 60 μL of ADP-Glo™ Max Detection Solution is added to each well of 96-well plate containing 60 μL of the solution (ratio of kinase reaction volume to ADP-Glo™ Reagent volume to Kinase Detection Solution volume is maintained at […]). Plate is incubated for 40 minutes on a shaker at RT, protected from light. Luminescence is measured in the plate reader Synergy 2 (BioTek). Luminescent readouts for compounds tested in 8 concentrations (routinely from 66.7 μM in 5-fold serial dilution step) in duplicates, as well as for high control (complete reaction mix w/DMSO vehicle control), are first normalized to no-substrate low control by its subtraction. In the next step, % of normalized positive control is calculated for each data point and plotted against test compound concentration:
% of control—percent of positive control normalized to no-substrate negative control Lumcpd—luminescence of test compound Lumneg—luminescence of no-substrate negative control Lumpos—luminescence of positive control
IC50 parameter is determined by the GraphPad Prism 6.0 software using 4-parameter model.

In test [2] the target is T2, Human recombinant His-tagged PFKFB3 (Homo sapiens, UniProt Q16875).
T2 construct: His; made in house
T2 sequence (Q16875 whole entry): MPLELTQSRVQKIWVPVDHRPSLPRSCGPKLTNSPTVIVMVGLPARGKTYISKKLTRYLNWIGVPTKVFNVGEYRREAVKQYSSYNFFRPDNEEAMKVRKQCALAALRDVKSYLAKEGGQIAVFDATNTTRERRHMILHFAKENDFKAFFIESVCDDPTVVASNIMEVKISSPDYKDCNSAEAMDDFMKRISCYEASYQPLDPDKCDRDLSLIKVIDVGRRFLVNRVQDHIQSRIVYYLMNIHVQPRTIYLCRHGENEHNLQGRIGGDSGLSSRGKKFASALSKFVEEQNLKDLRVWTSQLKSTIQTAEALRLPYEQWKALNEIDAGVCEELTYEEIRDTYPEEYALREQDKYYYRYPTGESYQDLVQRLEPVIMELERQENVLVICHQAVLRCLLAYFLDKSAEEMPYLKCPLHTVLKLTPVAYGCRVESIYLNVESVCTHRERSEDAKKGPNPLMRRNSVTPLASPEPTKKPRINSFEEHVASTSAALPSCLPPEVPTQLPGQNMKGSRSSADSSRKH
Kind of test: PFKFB3 IC50 determination assay (in vitro kinase assay, modified ADP-Glo system). The test is classed as biochemical. As to conditions: ADP-Glo; ATP 20 μM (Km), fructose-6-phosphate 2 μM (Km), 25 nM PFKFB3, 2 h, rt; read-out: PFKFB3 IC50.

pIC50: −log10 of the molar value.

T1 sequence (Q13882 whole entry): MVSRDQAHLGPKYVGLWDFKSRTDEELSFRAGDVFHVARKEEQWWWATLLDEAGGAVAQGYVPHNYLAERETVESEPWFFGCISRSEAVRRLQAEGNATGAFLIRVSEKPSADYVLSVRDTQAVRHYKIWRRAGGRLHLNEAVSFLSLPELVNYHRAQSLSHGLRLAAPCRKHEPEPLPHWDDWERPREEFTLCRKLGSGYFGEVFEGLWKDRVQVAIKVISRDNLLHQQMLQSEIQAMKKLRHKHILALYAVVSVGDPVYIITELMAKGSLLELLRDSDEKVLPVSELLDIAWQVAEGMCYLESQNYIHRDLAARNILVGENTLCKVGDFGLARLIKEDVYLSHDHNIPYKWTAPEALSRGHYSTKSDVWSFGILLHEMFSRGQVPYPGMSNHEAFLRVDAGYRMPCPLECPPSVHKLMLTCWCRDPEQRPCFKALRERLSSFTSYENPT

Consider `Cn1ccc2ccc(-c3cc(NC4CCNCC4)cc4nccnc34)cc21` [Example 97], for which the pIC50 in test [1] and in test [2] was 5.00 to 6.00 in each case.
For `CC(Nc1cc(N2CC3CCCC3C2)c2nccnc2c1)c1cccnc1` (stereo not shown) [Example 65], the figures for the pIC50 in test [1] and in test [2] were 5.00 to 6.00 and 4.00 to 5.00, respectively.
The corresponding values for `Cn1ccc2ccc(-c3cc(NCC4CCCNC4)cc4nccnc34)cc21` (stereo not shown) [compound 57, 8-(1-methyl-1H-indol-6-yl)-N-(piperidin-3-ylmethyl)quinoxalin-6-amine] are 6.00 to 9.00 and 5.00 to 6.00.
Consider `CCCC(=O)N1CCC(C(Nc2cc(-c3ccc4ccn(C)c4c3)c3nccnc3c2)c2cccnc2)CC1` (stereo not shown) [Example 248], for which the pIC50 in test [1] and in test [2] was 6.00 to 9.00 throughout.
Consider `COc1ncccc1CNc1cc(-c2ccc3ccn(C)c3c2)c2nccnc2c1` [Example 86], for which the pIC50 in test [1] is 6.00 to 9.00; in test [2], 5.00 to 6.00.
The corresponding values for `CC(Nc1cc(-c2ccc3ccn(C)c3c2)c2nccnc2c1)c1ccccn1` (stereo not shown) [compound 5, 8-(1-methyl-1H-indol-6-yl)-N-[1-(pyridin-2-yl)ethyl]quinoxalin-6-amine] are 6.00 to 9.00 and 5.00 to 6.00.
The corresponding values for `Cn1ccc2ccc(-c3cc(NC4CCCc5ccncc54)cc4nccnc34)cc21` (stereo not shown) [compound 16, 8-(1-methyl-1H-indol-6-yl)-N-(5,6,7,8-tetrahydroisoquinolin-8-yl)quinoxalin-6-amine] are 6.00 to 9.00 and 6.00 to 9.00.
Take `Cn1ccc2ccc(-c3cc(NCC4CCCOC4)cc4nccnc34)cc21` (stereo not shown) [compound 23, 8-(1-methyl-1H-indol-6-yl)-N-(oxan-3-ylmethyl)quinoxalin-6-amine]: the pIC50 in test [1] and in test [2] was 6.00 to 9.00 each time.
On to `CC(=O)N1CCc2ccc(-c3cc(NC(C)c4cccnc4)cc4nccnc34)cc21` (stereo not shown) [Example 64], for which the results for the pIC50 in test [1] and in test [2] were 5.00 to 6.00 and 4.00 to 5.00, respectively.
The corresponding values for `COc1ccc(-c2cc(N[C@@H]3CCCc4ccccc43)cc3nccnc23)cc1[N+](=O)[O-]` [compound 25, 8-(4-methoxy-3-nitrophenyl)-N-[(1R)-1,2,3,4-tetrahydronaphthalen-1-yl]quinoxalin-6-amine] are 4.00 to 5.00 and 5.00 to 6.00.
Taken in the same sequence, the figures for `Cn1ccc2ccc(-c3cc(NCc4ccc(C#N)cc4)cc4nccnc34)cc21` [Example 70] were 6.00 to 9.00 and 5.00 to 6.00.
Taken in the same sequence, the figures for `C[C@@H](Nc1cc(-c2ccc3ccn(C)c3c2)c2nccnc2c1)c1cccnc1` [Example 35] were 5.00 to 6.00 and 6.00 to 9.00.
Consider `CN1CC(Nc2cc(-c3ccc4ccn(C)c4c3)c3nccnc3c2)CCC1=O` (stereo not shown) [Example 133], for which the pIC50 in test [1] was 6.00 to 9.00; in test [2], 5.00 to 6.00.
Consider `Cn1ccc2ccc(-c3cc(NCC4COCCN4)cc4nccnc34)cc21` (stereo not shown) [Example 131], for which the pIC50 in test [1] was 6.00 to 9.00; in test [2] it was 5.00 to 6.00.
The corresponding values for `Cn1ccc2ccc(-c3cc(NCc4cccc(C#N)c4)cc4nccnc34)cc21` [Example 71] are 6.00 to 9.00 and 5.00 to 6.00.
Take `CC(Nc1cc(Cl)c2nccnc2c1)c1cccnc1` (stereo not shown) [compound 26, 8-chloro-N-[1-(pyridin-3-yl)ethyl]quinoxalin-6-amine]: the pIC50 in test [1] was 5.00 to 6.00; in test [2], 4.00 to 5.00.
Regarding `Cn1ccc2ccc(-c3cc(NCc4cccnc4)cc4nccnc34)cc21` [compound 10, 8-(1-methyl-1H-indol-6-yl)-N-(pyridin-3-ylmethyl)quinoxalin-6-amine], the pIC50 in test [1] and in test [2] was 6.00 to 9.00 throughout.
On to `CC(Nc1cc(-c2ccc3ccn(C)c3c2)c2nccnc2c1)c1cccc(S(N)(=O)=O)c1` (stereo not shown) [Example 28], for which the values for the pIC50 in test [1] and in test [2] were 6.00 to 9.00 and 5.00 to 6.00, respectively.
For the molecule `Cn1ccc2ccc(-c3cc(NCCc4cccnc4)cc4nccnc34)cc21` [compound 3, 8-(1-methyl-1H-indol-6-yl)-N-[2-(pyridin-3-yl)ethyl]quinoxalin-6-amine], the values for the negative logarithm of the IC50 (pIC50) in test [1] and in test [2] were 6.00 to 9.00 and 5.00 to 6.00, respectively.
As for `Cc1cnc2c(-c3ccc4ccn(C)c4c3)cc(NC(C)c3cccnc3)cc2n1` (stereo not shown) [Example 34], the pIC50 in test [1] is 4.00 to 5.00; in test [2], 6.00 to 9.00.
